# From ChEMBL document CHEMBL1131152, “In vitro and in vivo activities of oligodeoxynucleotide-based thrombin inhibitors containing neutral formacetal linkages” (J Med Chem, 1998)
# Molecular target: Prothrombin (Homo sapiens) (UniProt P00734)
# Test: Relative prothrombin time was determined as the activity of the test ODN (oligodeoxynucleotide) relative to that of GS-522
row,SMILES,Relative PT
1,Cc1cn([C@H]2C[C@H](OP(=O)(O)OC[C@H]3O[C@@H](n4cnc5c(=O)nc(N)[nH]c54)C[C@@H]3OP(=O)(O)OC[C@H]3O[C@@H](n4cnc5c(=O)[nH]c(=N)[nH]c54)C[C@@H]3OP(=O)(O)OC[C@H]3O[C@@H](n4cc(C)c(=O)[nH]c4=O)C[C@@H]3OP(=O)(O)OC[C@H]3O[C@@H](n4cnc5c(=O)nc(N)[nH]c54)C[C@@H]3OP(=O)(O)OC[C@H]3O[C@@H](n4cc(C)c(=O)[nH]c4=O)C[C@@H]3OP(=O)(O)OC[C@H]3O[C@@H](n4cnc5c(=O)nc(N)[nH]c54)C[C@@H]3OP(=O)(O)OC[C@H]3O[C@@H](n4cnc5c(=O)[nH]c(=N)[nH]c54)C[C@@H]3OP(=O)(O)OC[C@H]3O[C@@H](n4cc(C)c(=O)[nH]c4=O)C[C@@H]3OP(=O)(O)OC[C@H]3O[C@@H](n4cc(C)c(=O)[nH]c4=O)C[C@@H]3OP(=O)(O)OC[C@H]3O[C@@H](n4cnc5c(=O)[nH]c(=N)[nH]c54)C[C@@H]3OCOC[C@H]3O[C@@H](n4cnc5c(=O)nc(N)[nH]c54)C[C@@H]3O)[C@@H](COP(=O)(O)O[C@H]3C[C@H](n4cc(C)c(=O)[nH]c4=O)O[C@@H]3COP(=O)(O)O[C@H]3C[C@H](n4cnc5c(=O)[nH]c(=N)[nH]c54)O[C@@H]3COP(=O)(O)O[C@H]3C[C@H](n4cnc5c(=O)nc(N)[nH]c54)O[C@@H]3COP(=O)(O)O)O2)c(=O)[nH]c1=O,0.8
2,Cc1cn([C@H]2C[C@H](OCOC[C@H]3O[C@@H](n4cnc5c(=O)nc(N)[nH]c54)C[C@@H]3OP(=O)(O)OC[C@H]3O[C@@H](n4cnc5c(=O)[nH]c(=N)[nH]c54)C[C@@H]3OP(=O)(O)OC[C@H]3O[C@@H](n4cc(C)c(=O)[nH]c4=O)C[C@@H]3OP(=O)(O)OC[C@H]3O[C@@H](n4cc(C)c(=O)[nH]c4=O)C[C@@H]3OP(=O)(O)OC[C@H]3O[C@@H](n4cnc5c(=O)[nH]c(=N)[nH]c54)C[C@@H]3OP(=O)(O)OC[C@H]3O[C@@H](n4cnc5c(=O)nc(N)[nH]c54)C[C@@H]3O)[C@@H](COP(=O)(O)O[C@H]3C[C@H](n4cnc5c(=O)[nH]c(=N)[nH]c54)O[C@@H]3COP(=O)(O)O[C@H]3C[C@H](n4cc(C)c(=O)[nH]c4=O)O[C@@H]3COP(=O)(O)O[C@H]3C[C@H](n4cnc5c(=O)[nH]c(=N)[nH]c54)O[C@@H]3COP(=O)(O)O[C@H]3C[C@H](n4cnc5c(=O)nc(N)[nH]c54)O[C@@H]3COP(=O)(O)O[C@H]3C[C@H](n4cc(C)c(=O)[nH]c4=O)O[C@@H]3COP(=O)(O)O[C@H]3C[C@H](n4cc(C)c(=O)[nH]c4=O)O[C@@H]3COP(=O)(O)O[C@H]3C[C@H](n4cnc5c(=O)nc(N)[nH]c54)O[C@@H]3COP(=O)(O)O[C@H]3C[C@H](n4cnc5c(=O)nc(N)[nH]c54)O[C@@H]3COP(=O)(O)O)O2)c(=O)[nH]c1=O,1.1
3,Cc1cn([C@H]2C[C@H](OP(=O)(O)OC[C@H]3O[C@@H](n4cnc5c(=O)nc(N)[nH]c54)C[C@@H]3OCOC[C@H]3O[C@@H](n4cnc5c(=O)[nH]c(=N)[nH]c54)C[C@@H]3OP(=O)(O)OC[C@H]3O[C@@H](n4cc(C)c(=O)[nH]c4=O)C[C@@H]3OP(=O)(O)OC[C@H]3O[C@@H](n4cnc5c(=O)[nH]c(=N)[nH]c54)C[C@@H]3OP(=O)(O)OC[C@H]3O[C@@H](n4cc(C)c(=O)[nH]c4=O)C[C@@H]3OP(=O)(O)OC[C@H]3O[C@@H](n4cnc5c(=O)nc(N)[nH]c54)C[C@@H]3OCOC[C@H]3O[C@@H](n4cnc5c(=O)[nH]c(=N)[nH]c54)C[C@@H]3OP(=O)(O)OC[C@H]3O[C@@H](n4cc(C)c(=O)[nH]c4=O)C[C@@H]3OP(=O)(O)OC[C@H]3O[C@@H](n4cc(C)c(=O)[nH]c4=O)C[C@@H]3OP(=O)(O)OC[C@H]3O[C@@H](n4cnc5c(=O)[nH]c(=N)[nH]c54)C[C@@H]3OP(=O)(O)OC[C@H]3O[C@@H](n4cnc5c(=O)nc(N)[nH]c54)C[C@@H]3O)[C@@H](COP(=O)(O)O[C@H]3C[C@H](n4cc(C)c(=O)[nH]c4=O)O[C@@H]3COP(=O)(O)O[C@H]3C[C@H](n4cnc5c(=O)nc(N)[nH]c54)O[C@@H]3COP(=O)(O)O[C@H]3C[C@H](n4cnc5c(=O)[nH]c(=N)[nH]c54)O[C@@H]3COP(=O)(O)O)O2)c(=O)[nH]c1=O,0.6
4,Cc1cn([C@H]2C[C@H](OP(=O)(O)OC[C@H]3O[C@@H](n4cnc5c(=O)nc(N)[nH]c54)C[C@@H]3OP(=O)(O)OC[C@H]3O[C@@H](n4cnc5c(=O)[nH]c(=N)[nH]c54)C[C@@H]3OP(=O)(O)OC[C@H]3O[C@@H](n4cc(C)c(=O)[nH]c4=O)C[C@@H]3OP(=O)(O)OC[C@H]3O[C@@H](n4cnc5c(=O)nc(N)[nH]c54)C[C@@H]3OP(=O)(O)OC[C@H]3O[C@@H](n4cc(C)c(=O)[nH]c4=O)C[C@@H]3OP(=O)(O)OC[C@H]3O[C@@H](n4cnc5c(=O)nc(N)[nH]c54)C[C@@H]3OCOC[C@H]3O[C@@H](n4cnc5c(=O)[nH]c(=N)[nH]c54)C[C@@H]3OP(=O)(O)OC[C@H]3O[C@@H](n4cc(C)c(=O)[nH]c4=O)C[C@@H]3OP(=O)(O)OC[C@H]3O[C@@H](n4cc(C)c(=O)[nH]c4=O)C[C@@H]3OP(=O)(O)OC[C@H]3O[C@@H](n4cnc5c(=O)[nH]c(=N)[nH]c54)C[C@@H]3OP(=O)(O)OC[C@H]3O[C@@H](n4cnc5c(=O)nc(N)[nH]c54)C[C@@H]3O)[C@@H](COP(=O)(O)O[C@H]3C[C@H](n4cc(C)c(=O)[nH]c4=O)O[C@@H]3COP(=O)(O)O[C@H]3C[C@H](n4cnc5c(=O)nc(N)[nH]c54)O[C@@H]3COCO[C@H]3C[C@H](n4cnc5c(=O)nc(N)[nH]c54)O[C@@H]3COP(=O)(O)O)O2)c(=O)[nH]c1=O,0.7
5,Cc1cn([C@H]2C[C@H](OCOC[C@H]3O[C@@H](n4cnc5c(=O)nc(N)[nH]c54)C[C@@H]3OP(=O)(O)OC[C@H]3O[C@@H](n4cnc5c(=O)[nH]c(=N)[nH]c54)C[C@@H]3OP(=O)(O)OC[C@H]3O[C@@H](n4cc(C)c(=O)[nH]c4=O)C[C@@H]3OCOC[C@H]3O[C@@H](n4cnc5c(=O)[nH]c(=N)[nH]c54)C[C@@H]3OP(=O)(O)OC[C@H]3O[C@@H](n4cc(C)c(=O)[nH]c4=O)C[C@@H]3OP(=O)(O)OC[C@H]3O[C@@H](n4cnc5c(=O)nc(N)[nH]c54)C[C@@H]3OP(=O)(O)OC[C@H]3O[C@@H](n4cnc5c(=O)[nH]c(=N)[nH]c54)C[C@@H]3OP(=O)(O)OC[C@H]3O[C@@H](n4cc(C)c(=O)[nH]c4=O)C[C@@H]3OP(=O)(O)OC[C@H]3O[C@@H](n4cc(C)c(=O)[nH]c4=O)C[C@@H]3OP(=O)(O)OC[C@H]3O[C@@H](n4cnc5c(=O)[nH]c(=N)[nH]c54)C[C@@H]3OP(=O)(O)OC[C@H]3O[C@@H](n4cnc5c(=O)nc(N)[nH]c54)C[C@@H]3O)[C@@H](COP(=O)(O)O[C@H]3C[C@H](n4cc(C)c(=O)[nH]c4=O)O[C@@H]3COP(=O)(O)O[C@H]3C[C@H](n4cnc5c(=O)[nH]c(=N)[nH]c54)O[C@@H]3COP(=O)(O)O[C@H]3C[C@H](n4cnc5c(=O)[nH]c(=N)[nH]c54)O[C@@H]3COP(=O)(O)O)O2)c(=O)[nH]c1=O,0.3
6,Cc1cn([C@H]2C[C@H](OP(=O)(O)OC[C@H]3O[C@@H](n4cnc5c(=O)nc(N)[nH]c54)C[C@@H]3OP(=O)(O)OC[C@H]3O[C@@H](n4cnc5c(=O)[nH]c(=N)[nH]c54)C[C@@H]3OP(=O)(O)OC[C@H]3O[C@@H](n4cc(C)c(=O)[nH]c4=O)C[C@@H]3OP(=O)(O)OC[C@H]3O[C@@H](n4cnc5c(=O)[nH]c(=N)[nH]c54)C[C@@H]3OP(=O)(O)OC[C@H]3O[C@@H](n4cc(C)c(=O)[nH]c4=O)C[C@@H]3OP(=O)(O)OC[C@H]3O[C@@H](n4cnc5c(=O)nc(N)[nH]c54)C[C@@H]3OCOC[C@H]3O[C@@H](n4cnc5c(=O)[nH]c(=N)[nH]c54)C[C@@H]3OP(=O)(O)OC[C@H]3O[C@@H](n4cc(C)c(=O)[nH]c4=O)C[C@@H]3OP(=O)(O)OC[C@H]3O[C@@H](n4cc(C)c(=O)[nH]c4=O)C[C@@H]3OP(=O)(O)OC[C@H]3O[C@@H](n4cnc5c(=O)[nH]c(=N)[nH]c54)C[C@@H]3OCOC[C@H]3O[C@@H](n4cnc5c(=O)nc(N)[nH]c54)C[C@@H]3O)[C@@H](COP(=O)(O)O[C@H]3C[C@H](n4cc(C)c(=O)[nH]c4=O)O[C@@H]3COP(=O)(O)O[C@H]3C[C@H](n4cnc5c(=O)nc(N)[nH]c54)O[C@@H]3COP(=O)(O)O[C@H]3C[C@H](n4cnc5c(=O)[nH]c(=N)[nH]c54)O[C@@H]3COP(=O)(O)O)O2)c(=O)[nH]c1=O,0.8
7,Cc1cn([C@H]2C[C@H](OCOC[C@H]3O[C@@H](n4cnc5c(=O)nc(N)[nH]c54)C[C@@H]3OP(=O)(O)OC[C@H]3O[C@@H](n4cnc5c(=O)[nH]c(=N)[nH]c54)C[C@@H]3OP(=O)(O)OC[C@H]3O[C@@H](n4cc(C)c(=O)[nH]c4=O)C[C@@H]3OP(=O)(O)OC[C@H]3O[C@@H](n4cnc5c(=O)[nH]c(=N)[nH]c54)C[C@@H]3OP(=O)(O)OC[C@H]3O[C@@H](n4cc(C)c(=O)[nH]c4=O)C[C@@H]3OCOC[C@H]3O[C@@H](n4cnc5c(=O)nc(N)[nH]c54)C[C@@H]3OP(=O)(O)OC[C@H]3O[C@@H](n4cnc5c(=O)[nH]c(=N)[nH]c54)C[C@@H]3OP(=O)(O)OC[C@H]3O[C@@H](n4cc(C)c(=O)[nH]c4=O)C[C@@H]3OP(=O)(O)OC[C@H]3O[C@@H](n4cc(C)c(=O)[nH]c4=O)C[C@@H]3OP(=O)(O)OC[C@H]3O[C@@H](n4cnc5c(=O)[nH]c(=N)[nH]c54)C[C@@H]3OP(=O)(O)OC[C@H]3O[C@@H](n4cnc5c(=O)nc(N)[nH]c54)C[C@@H]3O)[C@@H](COP(=O)(O)O[C@H]3C[C@H](n4cc(C)c(=O)[nH]c4=O)O[C@@H]3COP(=O)(O)O[C@H]3C[C@H](n4cnc5c(=O)[nH]c(=N)[nH]c54)O[C@@H]3COP(=O)(O)O[C@H]3C[C@H](n4cnc5c(=O)[nH]c(=N)[nH]c54)O[C@@H]3COP(=O)(O)O)O2)c(=O)[nH]c1=O,0.7
